Data: patent publication US20040077715A1, “Use of an isothiocyanate, a thiocyanate or a mixture thereof as depigmenting agent” (priority 2001, published 2004)

Assays:
[1] = test system: fungal tyrosinase (EC. 1.14.18.1); test: Measurement of the power to inhibit tyrosinase (L-Dopa oxidation to dopachrome, O.D. at 475 nm); assay type: biochemical; conditions: for Concentration which inhibits the enzymatic activity of tyrosinase by 50%: fungal tyrosinase, L-Dopa substrate, pH 6.5, 30° C.; for Times more active than hydroquinone in inhibiting tyrosinase: relative to hydroquinone
Protocol: The following reaction is used: colourless L-Dopa (L-3,4-dihydroxyphenylalanine, obtained from Sigma (ref. D-9628)) is oxidized to coloured dopachrome, which absorbs at 475 nm. This reaction is catalyzed by fungal tyrosinase (EC. 1.14.18.1, obtained from Sigma (ref. T-7755)). The kinetics of the reaction are recorded by the measurement of the optical density (O.D.) as a function of the time at 30° C.
The compositions of the various solutions used are as follows:
L-Dopa at 0.35% (w/v) in the pH 6.5 buffer solution.
The inhibiting molecules are dissolved directly in the pH 6.5 buffer, in 50% methanol (methanol/distilled water) or in pure methanol, depending upon their solubility.
The concentrations in weight by volume of the various solutions of inhibitors are: 0.2%, 0.1%, 0.05%, 0.025%, 0.0125%, 0.00625% and 0.00312%.
Tyrosinase at 0.010% (w/v) in the pH 6.5 buffer solution.
The amounts of these various solutions used during the tests are presented in Tables 1 and 2 for each reaction studied:
The action of tyrosinase is evaluated by the initial rate of the reaction measured on the O.D. recording.
The initial rates of reactions without inhibitors (concentration 0) and the rates at the various concentrations tested are plotted on a curve.
The inhibiting power of a molecule is defined as the concentration which reduces the action of tyrosinase by 50%.

cultured melanocytes = test: Power to inhibit the synthesis of melanin with regard to cultured melanocytes; assay type: cell-based; conditions: for Effect on the synthesis of melanin (in words) / Inhibition of the synthesis of melanin: concentration of 0.00035%; for Inhibition of the synthesis of melanin: 8 independent tests
Protocol: These tests were carried out on different batches of cells during experiments which were independent and repeated (8 times).
The results are expressed in mg/ml of melanin in so far as the cells are inoculated at the same concentration.

[2] = test system: pigmented skin of guinea pigs; test: Test of the depigmenting power on pigmented guinea pigs; conditions: glycerol-based cream comprising 5% of product, twice daily
Protocol: Guinea pigs with a pigmented skin, shaved beforehand, received twice daily, 5 days out of 7, during one to two months of treatment, applications of a glycerol-based cream comprising 5% of kojic acid (ref. Aldrich 22,046-9) or 5% of hydroquinone (ref. Aldrich H 1,790-2) or 5% of benzoyl isothiocyanate (ref. Aldrich 30,818-8) or 5% of synthetic sulforaphane prepared according to Example 3. These applications were carried out on circular regions with a diameter of 2 cm pinpointed by indelible marking using yellow ink.

[3] = test system: Type-6 pigmented epidermis (reconstituted human skin); test: Power to inhibit the synthesis of melanin with regard to pigmented human skin reconstituted in culture; assay type: cell-based; conditions: daily for 5 days, then two further days
Protocol: Type-6 pigmented epidermis (corresponding to black skin), in a proportion of three samples per test, were treated daily for 5 days with a control cream with the following composition (as % by weight): [table] with kojic acid at a concentration of 3.5×10^−5 (w/w) and with sulforaphane at a concentration of 3.5×10^−6 (w/w) in the same cream acting as excipient. At the end of the treatment, the culture skin is left for a further two days and the melanin is extracted from the treated skin and from the control skin with a mixture of solvents and sodium hydroxide (Solvable® from Packard Bioscience B.V.) and the melanin extracted is quantified by colorimetry according to a method described previously (Chemical Characterization of Hair Melanins in Various Coat-Color Mutants of Mice; Hiroyuki Ozeki et al., J. Invest.

SMILES | Concentration which inhibits the enzymatic activity of tyrosinase by 50% [1] | Effect on the synthesis of melanin (in words) (cultured melanocytes) | Inhibition of the synthesis of melanin (cultured melanocytes) [%] | other results
CC(=O)N=C=S [Acetyl isothiocyanate] | 0.055 % (weight/volume) |  |  | 
O=C(N=C=S)c1ccccc1 [Benzoyl isothiocyanate] | 0.0063 % (weight/volume) | no longer have an effect | 9.5 | Times more active than hydroquinone in inhibiting tyrosinase [1]: approximately 24 times; Desquamation of the skin at the application spots ([2]; 5 days out of 7): desquamation of the skin
S=C=NCc1ccccc1 [Benzyl isothiocyanate] | 0.0980 % (weight/volume) |  |  | 
N#CSCc1ccccc1 [Benzyl thiocyanate] | 0.25 % (weight/volume) |  |  | 
S=C=NC1CCCCC1 [Cyclohexyl isothiocyanate] | 0.104 % (weight/volume) |  |  | 
Oc1ccc(O)cc1 [Hydroquinone] | 0.154 % (weight/volume) | inhibit the synthesis of melanin | 42 | Cytotoxicity (cultured melanocytes; cultured melanocytes): excessively high cytotoxicity
O=c1cc(CO)occ1O [Kojic acid, kojic acid, reference compound] |  | no longer have an effect | 1 | Inhibition of the synthesis of melanin (melatonin [sic]) ([3]; 3.5×10^−5 (w/w) in cream): 8%; Whitening of the skin ([2]; 5 days out of 7, after treating for 4 weeks): no effect
N#C[S-].[K+] [Potassium thiocyanate] | 0.20 % (weight/volume) |  |  | 
C[S+]([O-])CCCCN=C=S (centres unmarked) [Sulforaphane] | 0.103 % (weight/volume) | inhibit the synthesis of melanin | 26.22 | Inhibition of the synthesis of melanin (melatonin [sic]) ([3]; 3.5×10^−6 (w/w) in cream): 30%; Times more active than hydroquinone in inhibiting tyrosinase [1]: approximately 1.5 times
